This is an account of results in US20240148679A1, “METHODS AND COMPOSITIONS RELATED TO TREATMENT AND PREVENTION OF CANCER BY INHIBITION OF DGAT1 AND DGAT2” (Ohio State Innovation Foundation, priority 2019, published 2024).

For the test, the system named is U87/EGFRvIII cells-derived subcutaneous model. Nature of the test: U87/EGFRvIII subcutaneous xenograft model. The class given is in vivo, mice. Particulars: 120 mg/kg/day. How it is done:
(A-C) The effects of the DGAT1 inhibitor […] (120 mg/kg/day, oral gavage, details in Methods) in U87/EGFRvIII cells (1×10^6 cells/mouse)- or GBM30-derived subcutaneous models (4×10^6 cells/mouse), as shown by tumor growth rate in A and final isolated tumor images and weights in B. Tumor tissues were analyzed for LD presence by IF (TIP47 staining) and CPT1A and cleaved Caspase 3 levels by IHC in C. LD numbers and protein levels in tumor tissues were quantified by ImageJ and averaged from 5 separate areas in each tumor. The results for protein levels were normalized to control tumors (mean±SEM). Statistical significance was determined by one-way ANOVA. * P<0.01 for comparison with control group. Scale bars, m for IF, 40 m for IHC.
It was next examined whether pharmacological inhibition of DGAT1 is effective in inhibiting GBM growth using U87/EGFRvIII and GBM30 xenograft models. Tumor cells were implanted in mice flanks and started treatment with DGAT1 inhibitor A-922500 (120 mg/kg/day) when tumor reached approximately 80 mm3.
Intracranial xenograft models were generated using female athymic nude (NCr-nu/nu) mice (6-8 weeks of age obtained from OSU Target Validation Shared Resource). U87EGFRvIII (1×10^6) cells infected with shDGAT1-, shDGAT2- or scramble shRNA-expressing lentivirus for 48 hr (suspended in 100 μl PBS) were implanted into mice flank to generate subcutaneous model. For intracranial xenograft model, U87EGFRvIII-luc (1×10^5) or GBM30-luc (1×10^5) cells infected with shDGAT1-, shDGAT2- or scramble shRNA-expressing lentivirus for 48 hours (suspended in 5 μl PBS) were implanted into mouse brains. Mice were observed until they became moribund, at which point they were sacrificed. For drug treatment, U87EGFRvIII (1×10^6 cells suspended in 100 μl PBS) or GBM30 cells (4×10^6 suspended in 100 μl PBS and then mixed with 100 μl matrigel) were implanted in mouse flanks. DGAT1 inhibitor A-922500 (120 mg/kg/day, oral gavage) was formulated by 1% Tween 80 in PBS and administrated to mice when tumor size reached approximately 80 mm^3.

As to `O=C(Nc1ccccc1)Nc1ccc(-c2ccc(C(=O)[C@@H]3CCC[C@H]3C(=O)O)cc2)cc1` [A-922500], the “CPT1A expression in tumor tissues” value is “significantly increased CPT1A expression”, the “LD formation in tumor tissues (TIP47)” value was “dramatically suppressed LD formation” and the “cleaved caspase 3 levels in tumor tissues” value is recorded as “markedly elevated cleaved caspase 3 levels”. In addition, for the setting “oral gavage”, the tumor growth result is listed as “significantly suppressed tumor growth” and the tumor weight result was “dramatic reduction in tumor weight”. Besides, the tumor growth entry (oral gavage, listed as A-900225) is “dramatically suppresses GBM tumor growth”.
